The record followed here is patent US7452880B2, “Substituted pyrazolo [3,4-d] pyrimidines and methods of using the same” (priority 2004, dated 2008).

Structures are written as SMILES.

A word on the IC50: it is the point on the concentration scale where inhibition reaches its midpoint. By melting point is commonly meant the temperature of the solid-liquid transition.

One data set concerns the target T1, p38 MAP kinase (Homo sapiens, UniProt Q16539).
T1 construct: made in house; host or cells: E. coli (co-expressed with SEK-1 and MEKK to obtain the phosphorylated form)
The data set can be described thus: p38 (MAP) kinase in vitro assay (transfer of γ-33P-phosphate from ATP to Myelin Basic Protein). It is filed as biochemical. Particulars: phosphorylated recombinant p38 MAP kinase, MBP substrate, γ-33P-ATP, 30° C. The protocol:
This example illustrates a p38 (MAP) kinase in vitro assay useful for evaluating the compounds of the invention.
The p38 MAP kinase inhibitory activity of compounds of this invention in vitro was determined by measuring the transfer of the γ-phosphate from γ-^33P-ATP by p-38 kinase to Myelin Basic Protein (MBP), using a minor modification of the method described in Ahn, et al., J. Biol. Chem. 266:4220-4227 (1991).
The phosphorylated form of the recombinant p38 MAP kinase was co-expressed with SEK-1 and MEKK in E. Coli (see, Khokhlatchev, et al., J. Biol. Chem. 272:11057-11062 (1997)) and then purified by affinity chromatography using a Nickel column.
The phosphorylated p38 MAP kinase was diluted in kinase buffer (20 mM 3-(N-morpholino)propanesulfonic acid, pH 7.2, 25 mM β-glycerol phosphate, 5 mM ethylene glycol-bis(beta-aminoethyl ether)-N,N,N′,N′-tetraacetic acid, 1 mM sodium ortho-vanadate, 1 mM dithiothreitol, 40 mM magnesium chloride). Test compound dissolved in DMSO or only DMSO (control) was added and the samples were incubated for 10 min at 30° C. The kinase reaction was initiated by the addition of a substrate cocktail containing MBP and γ-^33P-ATP. […] The phosphorylated MBP was then separated from the residual γ-^33P-ATP using a phosphocellulose membrane (Millipore, Bedfrod, Mass.) and quantitated using a scintillation counter (Packard, Meriden, Conn.).

T1 sequence (Q16539 whole entry): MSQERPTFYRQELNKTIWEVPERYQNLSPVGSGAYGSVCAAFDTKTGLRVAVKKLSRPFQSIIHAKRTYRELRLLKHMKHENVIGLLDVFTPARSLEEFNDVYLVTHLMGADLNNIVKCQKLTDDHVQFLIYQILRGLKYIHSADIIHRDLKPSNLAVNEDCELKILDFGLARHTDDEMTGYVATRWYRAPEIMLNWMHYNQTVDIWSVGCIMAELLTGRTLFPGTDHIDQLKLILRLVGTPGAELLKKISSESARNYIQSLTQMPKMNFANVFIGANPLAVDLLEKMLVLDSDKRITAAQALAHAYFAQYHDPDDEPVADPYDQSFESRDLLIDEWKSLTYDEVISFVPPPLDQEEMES

For the molecule `Fc1ccc(Oc2ncc3c(-c4ccccc4Cl)n[nH]c3n2)c(F)c1` [Compound 3, 3-(2-Chloro-phenyl)-6-(2,4-difluoro-phenoxy)-1H-pyrazolo[3,4-d]pyrimidine], the IC50 on p38 MAP kinase is roughly 10 nM.

In turn, `FC(F)(F)c1ccccc1Oc1ncc2c(-c3ccccc3Cl)n[nH]c2n1` [Compound 13, 3-(2-Chloro-phenyl)-6-(2-trifluoromethyl-phenoxy)-1H-pyrazolo[3,4-d]pyrimidine] gave a melting point of 55.3 to 56.1 °C.

In turn, `Clc1ccccc1Oc1ncc2c(-c3cccs3)n[nH]c2n1` [Compound 22, 6-(2-Chloro-phenoxy)-3-thiophen-2-yl-1H-pyrazolo[3,4-d]pyrimidine] came in with a melting point of 221.3 to 223.1 °C.

The molecule `COc1ccc(F)c(-c2n[nH]c3nc(Oc4ccc(F)cc4F)ncc23)c1` [Compound 64, 6-(2,4-Difluoro-phenoxy)-3-(2-fluoro-5-methoxy-phenyl)-1H-pyrazolo[3,4-d]pyrimidine] showed a melting point of 177.6 to 183.2 °C.

In the case of `COc1ccccc1-c1n[nH]c2cc(Oc3ccc(F)cc3F)cnc12` [Compound 98, 6-(2,4-Difluoro-phenoxy)-3-(2-methoxy-phenyl)-1H-pyrazolo[4,3-b]pyridine], the melting point lay within 143.2 to 144.9 °C.
